Patent US8741871B2, “Trehalose compound, method for producing same, and pharmaceutical product containing the compound” (priority 2008, dated 2014)

Tests used:
THP-1 cells = assay: Measurement of IL-8 released from THP-1 cells (ELISA); type: cell-based, human; details: 50 μM test compound, two hours; FIG. 5
Procedure: An RPMI medium solution was prepared in the same manner as described above. Using this medium solution, an RPMI medium solution of the test compound was prepared as follows.
1.0 mg of the test compound was dissolved in 25 μl of DMSO by an ultrasonic treatment for approximately 1 minute. The thus obtained 40 mM test compound stock solution was added to 100 μl of RPMI medium to a final concentration of 50 μM. […] In the case of preparing the vehicle used as a control, instead of the 40 mM test compound stock solution, only the solvent was added in the same amount as described above to the RPMI medium, and it was then treated with ultrasonic wave for 5 seconds.
THP-1 cells (purchased from Cell Bank, RIKEN BioResource Center) were added to an RPMI medium to a cell density of 1.0×10^6 cells/100 μl and 100 μl each of the obtained solution was dispensed into a sterile Eppendorf tube. 100 μl of the RPMI medium solution of the test compound as prepared above was treated with ultrasonic wave for 5 seconds, and the total amount of the solution was then added to the Eppendorf tube, into which the cells had been dispensed. Two hours later, the reacted Eppendorf tube was centrifuged at 5000 rpm for 5 minutes, and the amount of IL-8 released into the supernatant was then measured using ELISA kit (human IL-8 ELISA kit (R & D Systems (trademark)).

[1] = test system: Welch bacillus (Type A; NTCT8237); type: in vivo
Procedure: As test compounds, 1 mg each of the compound synthesized by the method described in Production Example α-1 and TDCM were weighed. Emulsion solutions of the test compounds (1 mg/ml) were prepared in the same manner as described above.
[…] of Brain Heart Infusion (BHI) (Difco) powders were dissolved in 200 ml of distilled water. 40 ml of the obtained solution (hereinafter this solution is referred to as a “BHI medium”) was withdrawn with a measuring pipette, and it was then added to a 200-ml flask, followed by performing a high-pressure steam sterilization (121° C., 20 minutes). In addition, 5 ml of the BHI medium was added to two screw-top test tubes, and they were then subjected to a high-pressure steam sterilization. Moreover, a glass tube-equipped rubber plug (with a cotton plug) and a glass tube were also subjected to a high-pressure steam sterilization. In a clean bench, an appropriate amount of bacteria for preservation, which had grown on a cooked meat medium, was collected with a sterilized Pasteur pipette, and it was then inoculated on the BHI medium in the aforementioned sterilized screw-top test tube. Subsequently, it was incubated at 37° C. overnight.
In a clean bench, bacteria that had grown in the screw-top test tube (wherein the inside of the […] in which bacteria had grown became clouded, and gas was generated) was transferred into a 200-ml Erlenmeyer flask, which contained 40 ml of BHI medium. A glass tube was inserted into the medium, so as to carry out nitrogen substitution for 10 minutes. Subsequently, the glass tube-equipped rubber plug (with a cotton plug) was equipped in the Erlenmeyer flask (since Welch bacillus generates gas, it is necessary to make an air vent), and incubation was then carried out at 37° C. for 4 to 5 hours. Thereafter, the cultured Welch bacillus was transferred into a centrifuge tube, it was then centrifuged (9000 rpm, 15 minutes), and the supernatant was then removed. 20 ml of sterilized normal saline solution was added to the precipitate, so that the bacteria were suspended therein. The suspension was centrifuged (9000 rpm, 15 minutes), and the supernatant was then removed.
Mice (ICR, 6-week-old) were divided into three groups, and the following test was then carried out.
An emulsion solution containing the test compound, an emulsion solution containing TDCM, or an emulsion solution alone, which was to be used as a control, was intraperitoneally administered in an amount of 100 μg/mouse to a group of four mice (100 μl/mouse, in the case of the emulsion solution alone). Three hours later, Welch bacillus (2.4×10^7 cells/mouse) was intraperitoneally administered to the mice. Thereafter, the condition of the mice was observed.

[2] = test system: Salmonella typhmurium TA98; assay: Mutagenicity test (Ames test); details: TA98, in the presence or absence of S9 mix; FIG. 11
[3] = test system: breast cancer cells (FM3A cells); type: in vivo; details: 100 μg/mouse i.p. twenty-four hours before FM3A inoculation, nineteen days later
Procedure: The 100 μg/mouse test compound obtained in Example 9 (emulsion solution) was intraperitoneally administered to each mouse, and twenty-four hours later, breast cancer cells (FM3A cells) were inoculated into the abdominal cavity thereof. Nineteen days later, the body weight of each mouse was measured. In addition, the tissue sections of diaphragm, pancreas and testis were subjected to HE staining, and they were then observed under a microscope. As a result, the body weight of the breast cancer cell-inoculated mouse was increased by approximately 10 g, when compared with a control mouse, and it was observed that the mouse contained a large amount of ascites fluid.

[4] = test system: mouse intraperitoneal infiltrating cells; assay: Cell infiltration into mouse abdominal cavity (cell count, Giemsa staining, flow cytometry); details: 100 μg/mouse i.p.
Pseudomonas aeruginosa = type: in vivo
[5] = test system: Welch bacillus (C. perfringens Type-A NCTC8237); type: in vivo; details: pre-administration 100 μg/mouse i.p., twenty-four hours later 5.0×10^7 CFU/mL Welch bacillus i.p.; FIG. 16
[6] = twenty-four hours after administration, flow cytometry

Row | SMILES | IL-8 released from THP-1 cells, activity compared with TDCM (THP-1 cells) | Number of surviving mice/number of treated mice, 2 hours later ([1]; 100 μg/mouse i.p. three hours before Welch bacillus 2.4×10^7 cells/mouse i.p., 2 hours later) | Number of surviving mice/number of treated mice, 6 hours later ([1]; 100 μg/mouse i.p. three hours before Welch bacillus 2.4×10^7 cells/mouse i.p., 6 hours later) | Number of surviving mice/number of treated mice, 12 hours later ([1]; 100 μg/mouse i.p. three hours before Welch bacillus 2.4×10^7 cells/mouse i.p., 12 hours later) | Number of surviving mice/number of treated mice, 24 hours later ([1]; 100 μg/mouse i.p. three hours before Welch bacillus 2.4×10^7 cells/mouse i.p., 24 hours later) | Number of surviving mice/number of treated mice, 48 hours later ([1]; 100 μg/mouse i.p. three hours before Welch bacillus 2.4×10^7 cells/mouse i.p., 48 hours later) | mice that escaped death in Welch bacillus lethal models ([1]; 100 μg/mouse i.p., text summary of Table 4) | mutagenicity (Ames test, number of His colonies) [2] | body weight of breast cancer cell-inoculated mouse [3] | infiltration and metastasis of the cancer cells into various organs (diaphragm, pancreas, testis) ([3]; HE staining, FIG. 20) | infiltrating cells in the abdominal cavity of mice over time ([4]; 2 hours or 24 hours after administration, FIG. 12) | abundance ratio of the CD11b-positive cells and CD4-positive cells compared with vehicle [4, 6] | total number of CD11b-positive cells, CD4-positive cells and CD8-positive cells compared with vehicle [4, 6] | abundance ratio of the CD8-positive cells compared with vehicle ([4]; twenty-four hours after administration, flow cytometry, FIGS. 13 to 15) | number of infiltrating cells in mouse abdominal cavity compared with vehicle ([4]; twenty-four hours later, FIG. 12) | lethality of Pseudomonas aeruginosa-infected mice, post-administration (Pseudomonas aeruginosa; 100 μg/mouse i.p. three hours after infection with Pseudomonas aeruginosa, FIG. 18) | lethality of Pseudomonas aeruginosa-infected mice, pre-administration (Pseudomonas aeruginosa; pre-administration 100 μg/mouse i.p., twenty-four hours later 3.0×10^10 CFU/mL Pseudomonas aeruginosa i.p., FIG. 17) | lethality of Welch bacillus-infected mice [5]
1 | CCCCCCCCCCC(CCCCCCCCCC)C(=O)OCC1O[C@H](O[C@H]2OC(COC(=O)C(CCCCCCCCCC)CCCCCCCCCC)[C@@H](O)C(O)C2O)C(O)C(O)[C@@H]1O (stereo partly drawn) [Example 1, 6,6′-bis-O-(2-decyldodecanoyl)-α,α′-trehalose] | approximately 0.6 times | 4/4 | 4/4 | 4/4 | 3/4 | 3/4 | three out of the four mice | significant results could be obtained |  |  |  |  |  |  |  |  |  | 
2 | CCCCCCCCCC(CCCCCCCCC)CC(=O)OCC1O[C@H](O[C@H]2OC(COC(=O)CC(CCCCCCCCC)CCCCCCCCC)[C@@H](O)C(O)C2O)C(O)C(O)[C@@H]1O (stereo partly drawn) [Example 9, 6,6′-bis-O-(3-nonyldodecanoyl)-α,α′-trehalose] | approximately 0.8 times |  |  |  |  |  |  | did not exhibit mutagenicity | equivalent to that of a control mouse | not observed at all | an increase in infiltrating cells was observed time-dependently | hardly changed | 15 to 20 times | 2 to 3 times | 15 to 20 times | significantly suppressed | significantly suppressed | significantly suppressed
